Structures can show the parent of a compound that is named as a salt. Where two headings read alike, the source gives them in different places.
What was measured:
[1] = physchem; conditions: water, thermodynamic from solid
[2] = Water activity tests: competition slurry in IPA/water mixtures; assay type: physicochemical
[3] = Hydrate formation of free base versus humidity / water activity; assay type: physicochemical; conditions: ambient temperature
[4] = solvent Acetonitrile, ambient temperature, listed as Form A HCl salt of Compound (1)
[5] = solvent Chloroform, ambient temperature, listed as Form A HCl salt of Compound (1)
[6] = solvent Cyclohexane, ambient temperature
[7] = solvent Dimethylsulfoxide, ambient temperature, listed as Form A HCl salt of Compound (1)
[8] = solvent Ethylene glycol, ambient temperature
[9] = solvent Formic acid, ambient temperature, listed as Form A HCl salt of Compound (1)
[10] = solvent Hexane, ambient temperature
[11] = solvent Methanol, ambient temperature
[12] = solvent Methylcyclohexane, ambient temperature
[13] = solvent Tetralin, ambient temperature
[14] = solvent 1,4-Dioxane, ambient temperature
[15] = solvent 1-Pentanol, ambient temperature
[16] = solvent 1-Propanol, ambient temperature
[17] = solvent 2-Butanol, ambient temperature
[18] = solvent 2-Ethoxyethanol, ambient temperature
[19] = solvent 2-Methoxyethanol, ambient temperature
[20] = solvent 2-Propanol, ambient temperature
[21] = solvent Acetone, ambient temperature
[22] = solvent Dimethylsulfoxide, ambient temperature
[23] = solvent Ethanol, ambient temperature
[24] = solvent Formic acid, ambient temperature
[25] = solvent Methyl acetate, ambient temperature
[26] = solvent Methyl tetrahydrofuran, ambient temperature
[27] = solvent Methylethyl ketone, ambient temperature
[28] = solvent N,N-Dimethylacetamide, ambient temperature
[29] = solvent N,N-Dimethylformamide, ambient temperature
[30] = solvent Tetrahydrofuran, ambient temperature
[31] = solvent t-Butylmethylether, ambient temperature
[32] = solvent xylene, ambient temperature

In the case of `O=C(O)[C@H]1C2CCC(CC2)C1Nc1nc(-c2c[nH]c3ncc(F)cc23)ncc1F` (stereo partly shown) [Form A of HCl salt of Compound (1).½H2O], the solubility thermodynamic [1] is reported as 600 µg/mL, the Sol. (solvent 1,1,2-Trichloroethane, ambient temperature, listed as Form A HCl salt of Compound (1)) is reported as <0.1 mg/mL and the Sol. (solvent 1,2-Dichloroethane, ambient temperature, listed as Form A HCl salt of Compound (1)) is reported as 1.7 mg/mL. It also gave a Sol. (solvent 1,2-Dimethoxyethane, ambient temperature, listed as Form A HCl salt of Compound (1)) of 0.5 mg/mL, a Sol. (solvent 1,4-Dioxane, ambient temperature, listed as Form A HCl salt of Compound (1)) of 0.4 mg/mL and a Sol. (solvent 1-Butanol, ambient temperature, listed as Form A HCl salt of Compound (1)) of 2.9 mg/mL. It also gave a Sol. (solvent 1-Pentanol, ambient temperature, listed as Form A HCl salt of Compound (1)) of 3.3 mg/mL, a Sol. (solvent 1-Propanol, ambient temperature, listed as Form A HCl salt of Compound (1)) of 10.7 mg/mL and a Sol. (solvent 2-Butanol, ambient temperature, listed as Form A HCl salt of Compound (1)) of 2.9 mg/mL. The Sol. (solvent 2-Methoxyethanol, ambient temperature, listed as Form A HCl salt of Compound (1)) was 34.1 mg/mL, the Sol. (solvent 2-Methy-1-propanol, ambient temperature, listed as Form A HCl salt of Compound (1)) was 3.5 mg/mL and the Sol. (solvent 2-Propanol, ambient temperature, listed as Form A HCl salt of Compound (1)) was 3.3 mg/mL. For the same compound, the Sol. (solvent 3-Methyl-1-butanol, ambient temperature, listed as Form A HCl salt of Compound (1)) was 3.2 mg/mL, the Sol. (solvent Acetone, ambient temperature, listed as Form A HCl salt of Compound (1)) was 1.5 mg/mL and the “Resulting Form” value [4] was “Solvate”. For the same compound, the Sol. [4] was 0.5 mg/mL, the Sol. (solvent Anisole, ambient temperature, listed as Form A HCl salt of Compound (1)) was <0.1 mg/mL and the Sol. (solvent Butyl acetate, ambient temperature, listed as Form A HCl salt of Compound (1)) was 0.2 mg/mL. For the same compound, the Sol. (solvent Chlorobenzene, ambient temperature, listed as Form A HCl salt of Compound (1)) was <0.1 mg/mL, the “Resulting Form” value [5] was “Solvate” and the Sol. [5] was <0.1 mg/mL. The Sol. (solvent Cumene, ambient temperature, listed as Form A HCl salt of Compound (1)) was <0.1 mg/mL, the Sol. [6] was <0.1 mg/mL and the Sol. (solvent Dichloromethane, ambient temperature, listed as Form A HCl salt of Compound (1)) was 0.1 mg/mL. The “Resulting Form” value [7] was “Solvate”, the Sol. [7] was 346.5 mg/mL and the Sol. (solvent Ethanol, ambient temperature, listed as Form A HCl salt of Compound (1)) was 19.9 mg/mL. For the same compound, the Sol. (solvent Ethyl acetate, ambient temperature, listed as Form A HCl salt of Compound (1)) was 0.2 mg/mL, the Sol. (solvent Ethyl ether, ambient temperature, listed as Form A HCl salt of Compound (1)) was 0.1 mg/mL and the Sol. (solvent Ethyl formate, ambient temperature, listed as Form A HCl salt of Compound (1)) was 0.4 mg/mL. The “Resulting Form” value [8] was “Solvate”, the Sol. (solvent Ethylene glycol, ambient temperature, listed as Form A HCl salt of Compound (1)) was 108.1 mg/mL and the “Resulting Form” value [9] was “Solvate”. For the same compound, the Sol. [9] was 214.0 mg/mL, the Sol. (solvent Heptane, ambient temperature, listed as Form A HCl salt of Compound (1)) was <0.1 mg/mL and the Sol. [10] was <0.1 mg/mL. For the same compound, the Sol. (solvent Isobutyl acetate, ambient temperature, listed as Form A HCl salt of Compound (1)) was 0.2 mg/mL, the Sol. (solvent Isopropyl acetate, ambient temperature, listed as Form A HCl salt of Compound (1)) was 0.4 mg/mL and the “Resulting Form” value [11] was “Solvate”. For the same compound, the Sol. (solvent Methanol, ambient temperature, listed as Form A HCl salt of Compound (1)) was 46.4 mg/mL, the Sol. (solvent Methyl acetate, ambient temperature, listed as Form A HCl salt of Compound (1)) was 0.6 mg/mL and the Sol. (solvent Methyl tetrahydrofuran, ambient temperature, listed as Form A HCl salt of Compound (1)) was 0.7 mg/mL. For the same compound, the Sol. (solvent Methylbutyl ketone, ambient temperature, listed as Form A HCl salt of Compound (1)) was 0.4 mg/mL, the Sol. [12] was <0.1 mg/mL and the Sol. (solvent Methylethyl ketone, ambient temperature, listed as Form A HCl salt of Compound (1)) was 0.5 mg/mL. For the same compound, the Sol. (solvent Nitromethane, ambient temperature, listed as Form A HCl salt of Compound (1)) was <0.1 mg/mL, the Sol. (solvent Pentane, ambient temperature, listed as Form A HCl salt of Compound (1)) was <0.1 mg/mL and the Sol. (solvent Propyl acetate, ambient temperature, listed as Form A HCl salt of Compound (1)) was 0.8 mg/mL. For the same compound, the Sol. (solvent Tetrahydrofuran, ambient temperature, listed as Form A HCl salt of Compound (1)) was 0.7 mg/mL, the Sol. [13] was <0.1 mg/mL and the Sol. (solvent Toluene, ambient temperature, listed as Form A HCl salt of Compound (1)) was <0.1 mg/mL. The “stability in solvent systems” value (solvent systems listed in b317 (chlorobenzene to methyl tetrahydrofuran), ambient temperature, 2 weeks) was “stable”, the Sol. (solvent t-Butylmethylether, ambient temperature, listed as Form A HCl salt of Compound (1)) was 0.4 mg/mL and the Sol. (solvent xylene, ambient temperature, listed as Form A HCl salt of Compound (1)) was <0.1 mg/mL. For the same compound, the “form conversion in competition slurry” value [2] was “converted to Form F”.

In the case of `O=C(O)[C@H]1C2CCC(CC2)C1Nc1nc(-c2c[nH]c3ncc(F)cc23)ncc1F` (stereo partly shown) [Form A free base Compound (1)], the solubility thermodynamic at 2 weeks [1] is reported as < 100 µg/mL, the “water activity where the hydrate form was observed” value [3] is reported as “greater than 0.6” and the Sol. (solvent 1,1,2-Trichloroethane, ambient temperature) is reported as 1.0 mg/mL. The Sol. (solvent 1,2-Dichloroethane, ambient temperature) was 0.4 mg/mL, the Sol. (solvent 1,2-Dimethoxyethane, ambient temperature) was 114.0 mg/mL and the “Resulting Form” value [14] was “Solvate (1:1)”. For the same compound, the Sol. [14] was 21.3 mg/mL, the Sol. (solvent 1-Butanol, ambient temperature) was 21.0 mg/mL and the “Resulting Form” value [15] was “No signal”. The Sol. [15] was 14.5 mg/mL, the “Resulting Form” value [16] was “Solvate” and the Sol. [16] was 15.9 mg/mL. For the same compound, the “Resulting Form” value [17] was “Solvate (1:1)”, the Sol. [17] was 14.0 mg/mL and the “Resulting Form” value [18] was “Amorphous”. For the same compound, the Sol. [18] was >113 mg/mL, the “Resulting Form” value [19] was “Amorphous” and the Sol. [19] was >114 mg/mL. The Sol. (solvent 2-Methy-1-propanol, ambient temperature) was 12.2 mg/mL, the “Resulting Form” value [20] was “Solvate(1:1)” and the Sol. [20] was 12.9 mg/mL. The Sol. (solvent 3-Methyl-1-butanol, ambient temperature) was 9.7 mg/mL, the “Resulting Form” value [21] was “Solvate” and the Sol. [21] was 16.3 mg/mL. The Sol. (solvent Acetonitrile, ambient temperature) was 1.0 mg/mL, the Sol. (solvent Anisole, ambient temperature) was 0.7 mg/mL and the Sol. (solvent Butyl acetate, ambient temperature) was 8.1 mg/mL. It also gave a Sol. (solvent Chlorobenzene, ambient temperature) of 0.4 mg/mL, a Sol. (solvent Chloroform, ambient temperature) of 3.8 mg/mL and a Sol. (solvent Cumene, ambient temperature) of 0.3 mg/mL. For the same compound, the Sol. [6] was <0.1 mg/mL, the Sol. (solvent Dichloromethane, ambient temperature) was 0.9 mg/mL and the “Resulting Form” value [22] was “No signal”. For the same compound, the Sol. [22] was >113 mg/mL, the “Resulting Form” value [23] was “No signal” and the Sol. [23] was 35.5 mg/mL. It also gave a Sol. (solvent Ethyl acetate, ambient temperature) of 11.6 mg/mL, a Sol. (solvent Ethyl ether, ambient temperature) of 3.5 mg/mL and a Sol. (solvent Ethyl formate, ambient temperature) of 8.1 mg/mL. For the same compound, the Sol. [8] was 10.4 mg/mL, the Sol. (solvent Formamide, ambient temperature) was 7.0 mg/mL and the “Resulting Form” value [24] was “Amorphous”. For the same compound, the Sol. [24] was >89.4 mg/mL, the Sol. (solvent Heptane, ambient temperature) was <1.5 mg/mL and the Sol. [10] was <0.1 mg/mL. For the same compound, the Sol. (solvent Isobutyl acetate, ambient temperature) was 4.4 mg/mL, the Sol. (solvent Isopropyl acetate, ambient temperature) was 6.2 mg/mL and the “Resulting Form” value [11] was “Solvate”. The Sol. [11] was 25.5 mg/mL, the “Resulting Form” value [25] was “Solvate” and the Sol. [25] was 9.4 mg/mL. For the same compound, the “Resulting Form” value [26] was “Solvate(1:1)”, the Sol. [26] was 34.8 mg/mL and the Sol. (solvent Methylbutyl ketone, ambient temperature) was 20.0 mg/mL. For the same compound, the Sol. [12] was <0.1 mg/mL, the “Resulting Form” value [27] was “Amorphous” and the Sol. [27] was 27.3 mg/mL. For the same compound, the “Resulting Form” value [28] was “Solvate”, the Sol. [28] was >150 mg/mL and the “Resulting Form” value [29] was “Solvate”. The Sol. [29] was 39.2 mg/mL, the Sol. (solvent N-Methylpyrrolidinone, ambient temperature) was >149 mg/mL and the Sol. (solvent Nitromethane, ambient temperature) was 0.3 mg/mL. The Sol. (solvent Pentane, ambient temperature) was <0.3 mg/mL, the Sol. (solvent Propyl acetate, ambient temperature) was 7.5 mg/mL and the “Resulting Form” value [30] was “Solvate(1:1)”. For the same compound, the Sol. [30] was 61.2 mg/mL, the Sol. [13] was <0.1 mg/mL and the Sol. (solvent Toluene, ambient temperature) was 0.3 mg/mL. The “Resulting Form” value (solvent Water-IPA 1:1, ambient temperature) was “Solvate”, the “Resulting Form” value (solvent Water-MeOH 1:1, ambient temperature) was “Solvate” and the “Resulting Form” value (solvent Water-MeOH 1:3, ambient temperature) was “Solvate”. The Sol. (solvent acetic acid, ambient temperature) was 42.8 mg/mL, the “stability in solvent systems” value (solvent systems listed in b344 (acetonitrile to water-acetonitrile)) was “stable” and the “Resulting Form” value [31] was “Amorphous”. For the same compound, the Sol. [31] was 10.4 mg/mL, the “Resulting Form” value [32] was “Solvate” and the Sol. [32] was 0.3 mg/mL.

— patent US20160250213A1, “FORMULATIONS OF AZAINDOLE COMPOUNDS” (priority 2013, published 2016)
